Experimental data reported in patent US11274083B2, “Substituted thiophenyl uracils, salts thereof and the use thereof as herbicidal agents” (Syngenta Crop Protection AG, priority 2017, dated 2022).

How the values were obtained:
Type in all cases: in vivo
[1] = test system: Matricaria inodora; experiment: Herbicidal action pre-emergence, greenhouse pot test
[2] = test system: Hordeum murinum; experiment: as above; conditions: application rate 320 g/ha
How it was run: (§1)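 Under good greenhouse growth conditions, treated pots are compared visually with untreated ones about three weeks after spraying; the score runs from 0% (like control) to 100% (plants died). Treatment was a WP or EC spray to the soil over sown seeds, at up to 320 g/ha.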

[3] = test system: Abutilon theophrasti; experiment: as above
How it was run: as §1

[4] = test system: Polygonum convolvulus; experiment: as above
How it was run: as §1

[5] = test system: Viola tricolor; experiment: as above
How it was run: as §1

[6] = test system: Alopecurus myosuroides; experiment: as above; conditions: application rate 320 g/ha
How it was run: as §1

[7] = test system: Pharbitis purpurea; experiment: as above
How it was run: as §1

[8] = test system: Amaranthus retroflexus; experiment: as above
How it was run: as §1

[9] = test system: Setaria viridis; experiment: as above
How it was run: as §1

[10] = test system: Veronica persica; experiment: as above
How it was run: as §1

[11] = test system: Lolium rigidum; experiment: as above; conditions: application rate 320 g/ha
How it was run: as §1

[12] = test system: Stellaria media; experiment: as above
How it was run: as §1

[13] = test system: Echinochloa crus-galli; experiment: as above; conditions: application rate 320 g/ha
How it was run: as §1

[14] = test system: Avena fatua; experiment: as above; conditions: application rate 320 g/ha
How it was run: as §1

[15] = test system: Hordeum murinum; experiment: Herbicidal action post-emergence, greenhouse pot test
How it was run: (§2)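 Test plants, treated at the one-leaf stage 2 to 3 weeks after sowing in sandy loam, received a foliar spray at 80 g/ha or lower. Visual damage was rated about 3 weeks later as percent efficacy versus untreated plants.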

[16] = test system: Abutilon theophrasti; experiment: as above; conditions: application rate 80 g/ha
How it was run: as §2

[17] = test system: Polygonum convolvulus; experiment: as above
How it was run: as §2

[18] = test system: Viola tricolor; experiment: as above; conditions: application rate 80 g/ha
How it was run: as §2

[19] = test system: Alopecurus myosuroides; experiment: as above; conditions: application rate 80 g/ha, scored visually after about 3 weeks vs untreated controls
How it was run: as §2

[20] = test system: Pharbitis purpurea; experiment: as above
How it was run: as §2

[21] = test system: Amaranthus retroflexus; experiment: as above
How it was run: as §2

[22] = test system: Setaria viridis; experiment: as above; conditions: application rate 80 g/ha
How it was run: as §2

[23] = test system: Veronica persica; experiment: as above
How it was run: as §2

[24] = test system: Lolium rigidum; experiment: as above; conditions: application rate 80 g/ha
How it was run: as §2

[25] = test system: Matricaria inodora; experiment: as above; conditions: application rate 80 g/ha
How it was run: as §2

[26] = test system: Stellaria media; experiment: as above
How it was run: as §2

[27] = test system: Echinochloa crus-galli; experiment: as above; conditions: application rate 80 g/ha
How it was run: as §2

[28] = test system: Avena fatua; experiment: as above; conditions: application rate 80 g/ha
How it was run: as §2

[29] = test system: Digitaria sanguinalis; experiment: as above; conditions: application rate 80 g/ha
[30] = test system: Triticum aestivum; experiment: Crop compatibility post-emergence, greenhouse pot test; conditions: application rate 20 g/ha
How it was run: (§3)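 Visual % damage versus untreated plants, read about 3 weeks after treatment (100% = plants died, 0% = as control). Crops were sown in sandy loam pots in a greenhouse and sprayed at one-leaf stage with WP/EC compound in water with 0.5% additive, 600 L/ha.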

[31] = test system: Oryza sativa; experiment: as above; conditions: application rate 5 g/ha
How it was run: as §3

[32] = test system: Zea mays; experiment: as above; conditions: application rate 5 g/ha
How it was run: as §3

Compound | Hordeum murinum (Efficacy in %) [2] [%] | Alopecurus myosuroides (Efficacy in %) [6] [%] | Lolium rigidum (Efficacy in %) [11] [%] | Echinochloa crus-galli (Efficacy in %) [13] [%] | Avena fatua (Efficacy in %) [14] [%] | Abutilon theophrasti (Efficacy in %) [16] [%] | Viola tricolor (Efficacy in %) [18] [%] | Alopecurus myosuroides (Efficacy in %) [19] [%] | Pharbitis purpurea (Efficacy in %) ([20]; application rate 20 g/ha) [%] | Amaranthus retroflexus (Efficacy in %) ([21]; application rate 80 g/ha) [%] | Setaria viridis (Efficacy in %) [22] [%] | Veronica persica (Efficacy in %) ([23]; application rate 20 g/ha) [%] | Lolium rigidum (Efficacy in %) [24] [%] | Matricaria inodora (Efficacy in %) [25] [%] | Stellaria media (Efficacy in %) ([26]; application rate 20 g/ha) [%] | Echinochloa crus-galli (Efficacy in %) [27] [%] | Avena fatua (Efficacy in %) [28] [%] | Matricaria inodora (Efficacy in %) ([1]; application rate 320 g/ha) [%] | Abutilon theophrasti (Efficacy in %) ([3]; application rate 320 g/ha) [%] | Polygonum convolvulus (Efficacy in %) ([4]; application rate 320 g/ha) [%] | also measured
COC(=O)CCOC(=O)C(C)Sc1cc(-n2c(=O)cc(C(F)(F)F)n(C)c2=O)c(F)cc1Cl (centres unmarked) [I.1-2] | 90 | 90 | 100 | 100 | 90 | 100 | 100 | 100 | 100 | 100 | 100 | 100 | 90 | 100 | 100 | 100 | 80 | – | – | – | Matricaria inodora (Efficacy in %) ([1]; application rate 80 g/ha): 100%; Abutilon theophrasti (Efficacy in %) ([3]; application rate 80 g/ha): 100%; Polygonum convolvulus (Efficacy in %) ([4]; application rate 80 g/ha): 100%; Viola tricolor (Efficacy in %) ([5]; application rate 80 g/ha): 100%; Pharbitis purpurea (Efficacy in %) ([7]; application rate 80 g/ha): 100%; Amaranthus retroflexus (Efficacy in %) ([8]; application rate 80 g/ha): 100%; Setaria viridis (Efficacy in %) ([9]; application rate 80 g/ha): 100%; Veronica persica (Efficacy in %) ([10]; application rate 80 g/ha): 100%; Stellaria media (Efficacy in %) ([12]; application rate 80 g/ha): 100%; Hordeum murinum (Efficacy in %) ([15]; application rate 20 g/ha): 100%; Polygonum convolvulus (Efficacy in %) ([17]; application rate 20 g/ha): 100%
CCCOC(=O)CCOC(=O)C(C)Sc1cc(-n2c(=O)cc(C(F)(F)F)n(C)c2=O)c(F)cc1Cl (centres unmarked) [I.1-8] | – | 80 | 90 | 100 | – | 100 | 100 | 90 | – | 100 | 100 | – | 90 | 100 | – | 100 | 80 | 100 | 100 | 100 | Digitaria sanguinalis (Efficacy in %) [29]: 100%; Viola tricolor (Efficacy in %) ([5]; application rate 320 g/ha): 100%; Pharbitis purpurea (Efficacy in %) ([7]; application rate 320 g/ha): 100%; Amaranthus retroflexus (Efficacy in %) ([8]; application rate 320 g/ha): 100%; Setaria viridis (Efficacy in %) ([9]; application rate 320 g/ha): 100%; Veronica persica (Efficacy in %) ([10]; application rate 320 g/ha): 100%; Stellaria media (Efficacy in %) ([12]; application rate 320 g/ha): 100%; Triticum aestivum (Efficacy in %) [30]: 20%; Oryza sativa (Efficacy in %) [31]: 20%; Hordeum murinum (Efficacy in %) ([15]; application rate 80 g/ha): 90%; Polygonum convolvulus (Efficacy in %) ([17]; application rate 80 g/ha): 100%; Pharbitis purpurea (Efficacy in %) ([20]; application rate 80 g/ha): 100%; Veronica persica (Efficacy in %) ([23]; application rate 80 g/ha): 100%; Stellaria media (Efficacy in %) ([26]; application rate 80 g/ha): 100%
COC(=O)CC(CC(=O)OC)OC(=O)C(C)Sc1cc(-n2c(=O)cc(C(F)(F)F)n(C)c2=O)c(F)cc1Cl (centres unmarked) [I.1-127] | 100 | 90 | 100 | 100 | 90 | 100 | 100 | 90 | 100 | – | 100 | 100 | 100 | 100 | 100 | 100 | 80 | 100 | 100 | 100 | Viola tricolor (Efficacy in %) ([5]; application rate 320 g/ha): 100%; Pharbitis purpurea (Efficacy in %) ([7]; application rate 320 g/ha): 100%; Amaranthus retroflexus (Efficacy in %) ([8]; application rate 20 g/ha): 100%; Setaria viridis (Efficacy in %) ([9]; application rate 320 g/ha): 100%; Veronica persica (Efficacy in %) ([10]; application rate 320 g/ha): 100%; Stellaria media (Efficacy in %) ([12]; application rate 320 g/ha): 100%; Zea mays (Efficacy in %) [32]: 20%; Hordeum murinum (Efficacy in %) ([15]; application rate 80 g/ha): 90%; Polygonum convolvulus (Efficacy in %) ([17]; application rate 80 g/ha): 100%; Amaranthus retroflexus (Efficacy in %) ([21]; application rate 20 g/ha): 100%
